Test results published in US7494996B2 (priority 2000, dated 2009).

How the values were obtained:
Pyricularia oryzae = assay: whole plant or invertebrate; type: in vivo; details: 100 is total disease control, 0 is no disease control; for Rice Blast (RB) protectant fungicide data, percent control: 300 g/ha, greenhouse; for pest or weed control at 300 g/ha: Pyricularia oryzae, topical, 144 h, read-out: Rice Blast (RB) protectant fungicide data, percent control, protectant, 300 g/ha, greenhouse
Sphaerotheca fuliginea = assay: Cucumber Powdery Mildew (CPM) protectant test in the greenhouse; type: in vivo; details: 100 is total disease control, 0 is no disease control; for Cucumber Powdery Mildew (CPM) protectant fungicide data, percent control: 300 g/ha; for pest or weed control at 300 g/ha: Podosphaera fuliginea, topical, 168 h, read-out: Cucumber Powdery Mildew (CPM) protectant fungicide data, percent control
Procedure: Plants used in the fungicide testing program were grown in 2-¼-inch (5.7-cm). square pots containing RediEarth propagation substrate. The plants were raised under greenhouse conditions. The rice plants were 12-days-old and cucumbers were 13-days-old at the time of spraying with chemical treatments.
The sample of the experimental chemical was weighed and dissolved in an acetone-methanol-water solution (A/M/W at 1:1:2 ratio by volume).
After sprayer calibration, the test solutions were poured into the fungicide sprayer. The fungicide sprayer contains three spray nozzles, located approximately 10 cm above and to the sides of the plants. The spray produced by the nozzles results in uniform coverage of both the upper and lower parts of the plant leaves. After spraying, the treated plants were placed in a drying chamber for 4 hours, prior to sorting.
Cucumber Powdery Mildew (CPM), caused by the fungus Sphaerotheca fuliginea, was maintained on large cucumber plants. For inoculum preparation, five to eight leaves depending on size, completely covered with powdery mildew spores, were collected. The leaves were placed in a glass jar and covered with 500 ml of water, containing 5 drops of Tween-80. The material was filtered through two layers of cheesecloth to remove leaf fragments. The spore count was adjusted to 2×10^5 spores per ml.
Cucumber plants, cv. “Bush Champion,” were used for this test. The plants were thinned to one per pot after the cotyledons were fully developed. Two days before the test, the small leaves and meristem region were removed, leaving only the cotyledons and one large true leaf.
The protectant tests required that the cucumber plants be inoculated 1 day after spraying with the chemical treatment. The plants were inoculated with a hand-held spray bottle with the suspension of fungal spores. The leaves were lightly misted on the upper surface from two different spray directions. Disease development occurred in the greenhouse.
After seven days, the plants were evaluated for percent of disease control. The results are reported as percent control; 100 is total disease control, 0 is no disease control.

Row | SMILES | Rice Blast (RB) protectant fungicide data, percent control (Pyricularia oryzae) [percent control] | Cucumber Powdery Mildew (CPM) protectant fungicide data, percent control (Sphaerotheca fuliginea) [percent control] | pest or weed control at 300 g/ha (Pyricularia oryzae) [%] | pest or weed control at 300 g/ha (Sphaerotheca fuliginea) [%]
1 | CC(=O)N1CC(=O)N(CC(F)(F)F)N=C1c1cc(Cl)cc(Cl)c1 [Compound 72] | 75 | 50 | – | –
2 | O=C1CN(CC=CCl)C(c2cc(Cl)cc(Cl)c2)=NN1CC=CCl (mixture of isomers) [Compound 66] | 50 | 0 | – | –
3 | O=C1CNC(c2ccco2)=NN1CC(F)(F)F [Compound 140] | 0 | 50 | – | –
4 | C=CCOC(=O)N1CC(=O)N(CCCC)N=C1c1ccc(Cl)c(Cl)c1 [Compound 172] | 98 | 0 | – | –
5 | CCCCn1nc(-c2sc(C)nc2C(F)(F)F)ncc1=O [Compound 268] | 0 | 75 | – | –
6 | O=C1CNC(c2ccc(Cl)cc2Cl)=NN1CC(F)(F)F [Compound 73] | 85 | 75 | – | –
7 | CCCCn1nc(-c2ccccc2OC)ncc1=O [Compound 283] | 90 | 50 | – | –
8 | O=C1CNC(c2ccc(-c3ccccc3)cc2)=NN1CC(F)(F)F [Compound 146] | 95 | 85 | – | –
9 | CCCCOc1ccc(C2=NN(CCC#N)C(=O)CN2)cc1 [Compound 160] | 75 | 0 | – | –
10 | CCCCN1N=C(C)NC(c2cccc(C)c2)C1=O (stereo not drawn) [Compound 77] | 0 | 50 | – | –
11 | C#CCOC(=O)N1CC(=O)N(CCCC)N=C1c1ccc(Cl)c(Cl)c1 [Compound 171] | 80 | 50 | – | –
12 | CN1N=C(c2ccc(Oc3ccccc3)cc2)NCC1=O [Compound 156] | 85 | 0 | – | –
13 | O=C1CNC(c2ccccn2)=NN1Cc1ccccc1 [Compound 185] | 80 | 75 | – | –
14 | O=C1CNC(c2ccc(Cl)cc2)=NN1Cc1ccccc1 [Compound 30] | 85 | 75 | – | –
15 | O=c1cnc(-c2ccccc2F)nn1CC(F)(F)F [Compound 263] | 80 | 85 | – | –
16 | Cc1ccccc1-c1nn(CC(F)(F)F)c(=O)c(=O)[nH]1 [Compound 291] | – | – | 80 | 0
17 | CCCN1N=C(c2ccc(F)cc2)NCC1=O [Compound 148] | 80 | 80 | – | –
18 | C#CCN1CC(=O)N(CC#C)N=C1c1ccc(Cl)c(Cl)c1 [Compound 216] | 98 | 80 | – | –

Row | SMILES | Rice Blast (RB) protectant fungicide data, percent control (Pyricularia oryzae) [percent control] | Cucumber Powdery Mildew (CPM) protectant fungicide data, percent control (Sphaerotheca fuliginea) [percent control] | pest or weed control at 300 g/ha (Pyricularia oryzae) [%] | pest or weed control at 300 g/ha (Sphaerotheca fuliginea) [%]
19 | C#CCN1N=C(c2cccc(Br)c2)NCC1=O [Compound 227] | 90 | 75 | – | –
20 | COC1NC(c2cc(Cl)cc(Cl)c2)=NN(CC(F)(F)F)C1=O (stereo not drawn) [Compound 18, 1-(2,2,2-Trifluoroethyl)-3-(3,5-dichlorophenyl)-5-methoxy-4,5-dihydro-1,2,4-triazin-6-one] | – | – | 95 | 75
21 | O=C1CNC(c2ccccc2Cl)=NN1CC(F)(F)F [Compound 97] | 0 | 85 | – | –
22 | CN1N=C(c2ccc(C(F)(F)F)cc2)NCC1=O [Compound 122] | 75 | 75 | – | –
23 | O=c1cnc(-c2ccccc2Cl)nn1CC(F)(F)F [Compound 267] | 80 | 85 | – | –
24 | C=CCN1N=C(c2cc(Cl)cc(Cl)c2)NCC1=O [Compound 128] | 90 | 0 | – | –
25 | COc1ccc(C2=NN(CC(F)(F)F)C(=O)CN2)cc1 [Compound 35] | 50 | 50 | – | –
26 | C=CCSC(=O)N1CC(=O)N(CCCC)N=C1c1ccc(Cl)c(Cl)c1 [Compound 191] | 95 | 50 | – | –
27 | CCCCN1N=C(c2ccc(Cl)c(Cl)c2)N(C(=S)SC)CC1=O [Compound 12, 1-n-butyl-3-(3,4-dichlorophenyl)-4-methylthiothiocarbonyl-4,5-dihydro-1,2,4-triazin-6-one] | – | – | 95 | 0
28 | CCCCN1N=C(c2ccc(OCC)cc2)NCC1=O [Compound 116] | 85 | 0 | – | –
29 | CSc1ccc(C2=NN(CC(F)(F)F)C(=O)CN2)cc1 [Compound 147] | 98 | 0 | – | –
30 | O=C1CNC(c2ccc(Cl)cc2)=NN1c1ccccn1 [Compound 59] | 50 | 0 | – | –
31 | C#CCN1CC(=O)N(CC#C)N=C1c1cccc(C(F)(F)F)c1 [Compound 87] | 90 | 0 | – | –
32 | C=CCOC(=O)N1CC(=O)N(CC(F)(F)F)N=C1c1cc(Cl)cc(Cl)c1 [Compound 134] | 80 | 50 | – | –
33 | CCCCn1nc(-c2cccc(Cl)c2)ncc1=O [Compound 277] | 95 | 0 | – | –
34 | O=C1CNC(c2cccc([N+](=O)[O-])c2)=NN1Cc1ccccc1 [Compound 184] | 85 | 75 | – | –
35 | CCCCN1N=C(c2cc(Cl)cc(Cl)c2)N(C(=O)OCCl)CC1=O [Compound 15, 1-(n-butyl)-3-(3,5-dichlorophenyl)-4-(chloromethyloxycarbonyl)-4,5-dihydro-1,2,4-triazin-6-one] | – | – | 75 | 50
36 | O=C1CNC(c2ccc(F)c(F)c2)=NN1CC(F)(F)F [Compound 98] | 85 | 75 | – | –
